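Interpolation was linear, between the two tested concentrations surrounding the appropriate level; five concentrations were tested over 48 hours in 96-well plates. TGI denotes the concentration required for complete inhibition of growth.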
Columns and labels:
Experiment in all cases: growth of human tumour cells (NCI), 48 h
T-47D breast = system: T-47D breast
MDA-MB-231 breast = system: MDA-MB-231 breast
IGROV1 ovarian = system: IGROV1 ovarian
SK-MEL-2 melanoma = system: SK-MEL-2 melanoma
OVCAR-3 ovarian = system: OVCAR-3 ovarian
OVCAR-8 ovarian = system: OVCAR-8 ovarian
HOP-62 NSCLC = system: HOP-62 NSCLC
HT29 colon = system: HT29 colon
KM12 colon = system: KM12 colon
SF-268 CNS = system: SF-268 CNS
PC-3 prostate = system: PC-3 prostate
SF-295 CNS = system: SF-295 CNS
786-0 renal = system: 786-0 renal
M14 melanoma = system: M14 melanoma
HL-60(TB) leukemia = system: HL-60(TB) leukemia
NCI/ADR-RES ovarian = system: NCI/ADR-RES ovarian
A549 NSCLC = system: A549 NSCLC
U251 CNS = system: U251 CNS
MDA-N = system: MDA-N
DU-145 prostate = system: DU-145 prostate
SNB-19 CNS = system: SNB-19 CNS
TK-10 renal = system: TK-10 renal
MOLT-4 leukemia = system: MOLT-4 leukemia
MCF7 breast = system: MCF7 breast
SK-MEL-5 melanoma = system: SK-MEL-5 melanoma
MALME-3M melanoma = system: MALME-3M melanoma
NCI-H460 lung = system: NCI-H460 lung
HOP-92 NSCLC = system: HOP-92 NSCLC
HCT-15 colon = system: HCT-15 colon
CCRF-CEM leukemia = system: CCRF-CEM leukemia
SK-MEL-28 melanoma = system: SK-MEL-28 melanoma
SW-620 colon = system: SW-620 colon
UACC-257 melanoma = system: UACC-257 melanoma
A498 renal = system: A498 renal
UACC-62 melanoma = system: UACC-62 melanoma
BT-549 breast = system: BT-549 breast
CAKI-1 renal = system: CAKI-1 renal
MDA-MB-435 = system: MDA-MB-435
ACHN renal = system: ACHN renal
EKVX NSCLC = system: EKVX NSCLC
NCI-H23 lung = system: NCI-H23 lung
HCT-116 colon = system: HCT-116 colon
HS 578T breast = system: HS 578T breast
NCI-H522 lung = system: NCI-H522 lung
LOX IMVI melanoma = system: LOX IMVI melanoma
RXF 393 renal = system: RXF 393 renal
RPMI-8226 leukemia = system: RPMI-8226 leukemia
OVCAR-5 ovarian = system: OVCAR-5 ovarian
SK-OV-3 ovarian = system: SK-OV-3 ovarian
COLO 205 colon = system: COLO 205 colon
SN12C renal = system: SN12C renal
SF-539 CNS = system: SF-539 CNS
OVCAR-4 ovarian = system: OVCAR-4 ovarian
SNB-75 CNS = system: SNB-75 CNS
NCI-H226 lung = system: NCI-H226 lung
UO-31 renal = system: UO-31 renal

Structure (SMILES): Fc1ccc(Nc2nnc(-c3ccccn3)s2)cc1
- TGI (T-47D breast): > 100 µM
- TGI (MDA-MB-231 breast): > 100 µM
- TGI (IGROV1 ovarian): > 100 µM
- TGI (SK-MEL-2 melanoma): > 100 µM
- TGI (OVCAR-3 ovarian): > 100 µM
- TGI (OVCAR-8 ovarian): > 100 µM
- TGI (HOP-62 NSCLC): > 100 µM
- TGI (HT29 colon): > 100 µM
- TGI (KM12 colon): > 100 µM
- TGI (SF-268 CNS): > 100 µM
- TGI (PC-3 prostate): > 100 µM
- TGI (SF-295 CNS): > 100 µM
- TGI (786-0 renal): > 100 µM
- TGI (M14 melanoma): > 100 µM
- TGI (HL-60(TB) leukemia): > 100 µM
- TGI (NCI/ADR-RES ovarian): > 100 µM
- TGI (A549 NSCLC): > 100 µM
- TGI (U251 CNS): > 100 µM
- TGI (MDA-N): > 100 µM
- TGI (DU-145 prostate): > 100 µM
- TGI (SNB-19 CNS): > 100 µM
- TGI (TK-10 renal): > 100 µM
- TGI (MOLT-4 leukemia): > 100 µM
- TGI (MCF7 breast): > 100 µM
- TGI (SK-MEL-5 melanoma): > 100 µM
- TGI (MALME-3M melanoma): > 100 µM
- TGI (NCI-H460 lung): > 100 µM
- TGI (HOP-92 NSCLC): > 100 µM
- TGI (HCT-15 colon): > 100 µM
- TGI (CCRF-CEM leukemia): > 100 µM
- TGI (SK-MEL-28 melanoma): > 100 µM
- TGI (SW-620 colon): > 100 µM
- TGI (UACC-257 melanoma): > 100 µM
- TGI (A498 renal): > 100 µM
- TGI (UACC-62 melanoma): > 100 µM
- TGI (BT-549 breast): > 100 µM
- TGI (CAKI-1 renal): > 100 µM
- TGI (MDA-MB-435): > 100 µM
- TGI (ACHN renal): > 100 µM
- TGI (EKVX NSCLC): > 100 µM
- TGI (NCI-H23 lung): > 100 µM
- TGI (HCT-116 colon): > 100 µM
- TGI (HS 578T breast): > 100 µM
- TGI (NCI-H522 lung): > 100 µM
- TGI (LOX IMVI melanoma): > 100 µM
- TGI (RXF 393 renal): > 100 µM
- TGI (RPMI-8226 leukemia): > 100 µM
- TGI (OVCAR-5 ovarian): > 100 µM
- TGI (SK-OV-3 ovarian): > 100 µM
- TGI (COLO 205 colon): > 100 µM
- TGI (SN12C renal): > 100 µM
- TGI (SF-539 CNS): > 100 µM
- TGI (OVCAR-4 ovarian): > 100 µM

Structure (SMILES): O=C1c2ccccc2-c2c1c(-c1ccccc1)c1n2C2(C(=O)c3ccccc3C2=O)C2C(=O)N(c3ccccc3)C(=O)C12 (stereo unspecified)
- TGI (T-47D breast): 65.7 µM
- TGI (IGROV1 ovarian): > 100 µM
- TGI (SK-MEL-2 melanoma): 51.4 µM
- TGI (OVCAR-3 ovarian): 51.1 µM
- TGI (OVCAR-8 ovarian): > 100 µM
- TGI (HOP-62 NSCLC): 63.7 µM
- TGI (HT29 colon): 41.6 µM
- TGI (SNB-75 CNS): 79.2 µM
- TGI (KM12 colon): 47.9 µM
- TGI (SF-268 CNS): 65.6 µM
- TGI (PC-3 prostate): 81.6 µM
- TGI (SF-295 CNS): > 100 µM
- TGI (786-0 renal): 68.9 µM
- TGI (M14 melanoma): > 100 µM
- TGI (NCI/ADR-RES ovarian): > 100 µM
- TGI (A549 NSCLC): > 100 µM
- TGI (U251 CNS): > 100 µM
- TGI (MDA-N): 65.3 µM
- TGI (DU-145 prostate): > 100 µM
- TGI (SNB-19 CNS): > 100 µM
- TGI (TK-10 renal): > 100 µM
- TGI (MOLT-4 leukemia): > 100 µM
- TGI (MCF7 breast): 73.4 µM
- TGI (SK-MEL-5 melanoma): 35.3 µM
- TGI (MALME-3M melanoma): 51.9 µM
- TGI (NCI-H460 lung): 36.9 µM
- TGI (HOP-92 NSCLC): 73.7 µM
- TGI (HCT-15 colon): 42.8 µM
- TGI (CCRF-CEM leukemia): 60 µM
- TGI (SK-MEL-28 melanoma): > 100 µM
- TGI (SW-620 colon): > 100 µM
- TGI (UACC-257 melanoma): > 100 µM
- TGI (A498 renal): > 100 µM
- TGI (UACC-62 melanoma): 49 µM
- TGI (BT-549 breast): 45.2 µM
- TGI (CAKI-1 renal): > 100 µM
- TGI (MDA-MB-435): 50.3 µM
- TGI (ACHN renal): > 100 µM
- TGI (EKVX NSCLC): > 100 µM
- TGI (NCI-H226 lung): 43.5 µM
- TGI (NCI-H23 lung): 37.4 µM
- TGI (HCT-116 colon): 37.8 µM
- TGI (HS 578T breast): 63.7 µM
- TGI (NCI-H522 lung): 33.6 µM
- TGI (LOX IMVI melanoma): 32.8 µM
- TGI (RXF 393 renal): 41.5 µM
- TGI (UO-31 renal): 79.3 µM
- TGI (OVCAR-5 ovarian): > 100 µM
- TGI (SK-OV-3 ovarian): > 100 µM
- TGI (COLO 205 colon): 50.7 µM
- TGI (SN12C renal): 61.4 µM
- TGI (SF-539 CNS): 37.5 µM
- TGI (OVCAR-4 ovarian): > 100 µM

From PubChem BioAssay (NCI)
